In patent US6720324B2, “Selective melanin concentrating hormone-1 (MCH1) receptor antagonists and uses thereof” (Synaptic Pharmaceutical Corporation, priority 2000, dated 2004):
pKi: −log10 of the molar value. Read-outs that look alike come from different tables or passages of the source.

How the values were obtained:
human MCH1 receptor = human MCH1 receptor (Homo sapiens, UniProt Q99705); experiment: Radioligand competition binding with [3H]Compound 10, membranes of A293 cells; conditions: Table 3, A293 cell membranes, [3H]Compound 10 as radioligand, read-out: hMCH1 * Ki
Sequence of human MCH1 receptor (Q99705 whole entry): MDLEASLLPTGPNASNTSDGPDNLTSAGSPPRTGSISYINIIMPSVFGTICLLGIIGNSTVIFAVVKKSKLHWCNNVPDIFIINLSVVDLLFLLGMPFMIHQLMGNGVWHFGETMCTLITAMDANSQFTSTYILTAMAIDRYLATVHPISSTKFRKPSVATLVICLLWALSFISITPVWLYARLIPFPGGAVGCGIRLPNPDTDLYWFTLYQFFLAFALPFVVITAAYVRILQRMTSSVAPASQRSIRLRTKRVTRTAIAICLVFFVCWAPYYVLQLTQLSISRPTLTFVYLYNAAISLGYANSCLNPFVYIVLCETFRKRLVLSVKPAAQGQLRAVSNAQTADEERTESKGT
Method: (§1) For binding assays, pellets of transfected cells are suspended in ice-cold buffer (20 mM Tris.HCl, 5 mM EDTA, pH 7.4) and homogenized by sonication for 7 sec. The cell lysates are centrifuged at 200×g for 5 min at 4° C. The supernatants are then centrifuged at 40,000×g for 20 min at 4° C. The resulting pellets are washed once in the homogenization buffer and suspended in binding buffer (see methods for radioligand binding). Protein concentrations are determined by the method of Bradford (1976) using bovine serum albumin as the standard. Binding assays are usually performed immediately, however it is possible to prepare membranes in batch and store frozen in liquid nitrogen for future use.
Radioligand binding assays for the MCH1 receptor were carried out using plasmid pEXJ.HR-TL231 (ATCC Accession No. 203197). Plasmid pEXJ.HR-TL231 comprises the regulatory elements necessary for expression of DNA in a mammalian cell operatively linked to DNA encoding the human MCH1 receptor so as to permit expression thereof. Plasmid pEXJ.HR-TL231 was deposited on Sep. 17, 1998, with the American Type Culture Collection (ATCC), 12301 Parklawn Drive, Rockville, Md. 20852, U.S.A. under the provisions of the Budapest Treaty for the International Recognition of the Deposit of Microorganisms for the Purposes of Patent Procedure and was accorded ATCC Accession No. 203197. […]

human GALR1 = biological target: T1, human GALR1 (Homo sapiens, UniProt P47211); experiment: Radioligand binding assay, cloned receptor; conditions: read-out: hGALR1 Ki
T1 construct: expressed in transfected cells
T1 sequence (P47211 1-349): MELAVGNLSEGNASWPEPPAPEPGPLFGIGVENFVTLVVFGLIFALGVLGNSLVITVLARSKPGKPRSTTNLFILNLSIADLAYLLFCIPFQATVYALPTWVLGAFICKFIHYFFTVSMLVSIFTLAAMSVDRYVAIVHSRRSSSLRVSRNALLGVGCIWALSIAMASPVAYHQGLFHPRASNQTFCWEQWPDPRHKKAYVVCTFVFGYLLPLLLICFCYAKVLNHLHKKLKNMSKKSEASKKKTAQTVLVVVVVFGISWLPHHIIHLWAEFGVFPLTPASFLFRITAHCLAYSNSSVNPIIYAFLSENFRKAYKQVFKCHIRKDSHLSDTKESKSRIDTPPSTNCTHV
Method: as §1
(§2) The methods to obtain the cDNA of the human NPY1, NPY5, GALR1, GALR2, and GALR3 and rat 5-HT2C receptors, express said receptors in heterologous systems, and carry out assays to determine binding affinity are described in the following publications and above: human NPY1 (Larhammar et al., 1992), human NPY5 (U.S. Pat. No. 5,602,024, the disclosure of which is hereby incorporated by reference in its entirety into this application), human Gal1 (Habert-Ortoli et al., 1994), human Gal2 (Smith et al., 1997), human Gal3 (Smith et al., 1998), and rat 5-HT2C (Julius et al., 1988).

human GALR3 = biological target: T2, human GALR3 (Homo sapiens, UniProt O60755); experiment: Radioligand binding assay, cloned receptor; conditions: read-out: hGALR3 Ki
T2 construct: expressed in transfected cells
T2 sequence (O60755 1-368): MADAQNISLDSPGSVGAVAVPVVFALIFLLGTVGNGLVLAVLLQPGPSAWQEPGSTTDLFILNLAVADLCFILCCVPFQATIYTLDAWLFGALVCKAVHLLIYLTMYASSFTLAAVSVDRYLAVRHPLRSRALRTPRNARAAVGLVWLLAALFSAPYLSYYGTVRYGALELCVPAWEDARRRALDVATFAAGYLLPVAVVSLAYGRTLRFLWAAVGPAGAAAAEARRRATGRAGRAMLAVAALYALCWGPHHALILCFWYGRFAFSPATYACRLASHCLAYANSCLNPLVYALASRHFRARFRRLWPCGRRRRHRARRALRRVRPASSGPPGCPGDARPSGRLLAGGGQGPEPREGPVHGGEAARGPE
Method: as §1, §2

human GALR2 = biological target: T3, human GALR2 (Homo sapiens, UniProt O43603); experiment: Radioligand binding assay, cloned receptor; conditions: read-out: hGALR2 Ki
T3 construct: expressed in transfected cells
T3 sequence (O43603 1-387): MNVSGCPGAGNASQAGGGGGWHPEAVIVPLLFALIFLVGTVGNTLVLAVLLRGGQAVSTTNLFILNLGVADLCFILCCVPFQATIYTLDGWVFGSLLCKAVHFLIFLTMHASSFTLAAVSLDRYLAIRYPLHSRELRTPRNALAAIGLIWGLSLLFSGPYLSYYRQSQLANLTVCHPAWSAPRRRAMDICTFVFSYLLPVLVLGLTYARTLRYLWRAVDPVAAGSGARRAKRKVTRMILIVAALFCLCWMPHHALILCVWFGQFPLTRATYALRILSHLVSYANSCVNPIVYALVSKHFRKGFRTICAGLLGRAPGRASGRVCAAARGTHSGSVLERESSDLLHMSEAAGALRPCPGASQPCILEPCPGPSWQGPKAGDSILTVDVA
Method: as §1, §2

rat 5-HT2C receptor = biological target: T4, rat 5-HT2C receptor (Rattus norvegicus, UniProt P08909); experiment: Radioligand binding assay, cloned receptor; conditions: read-out: r5HT2C Ki
T4 construct: expressed in transfected cells
T4 sequence (P08909 33-460): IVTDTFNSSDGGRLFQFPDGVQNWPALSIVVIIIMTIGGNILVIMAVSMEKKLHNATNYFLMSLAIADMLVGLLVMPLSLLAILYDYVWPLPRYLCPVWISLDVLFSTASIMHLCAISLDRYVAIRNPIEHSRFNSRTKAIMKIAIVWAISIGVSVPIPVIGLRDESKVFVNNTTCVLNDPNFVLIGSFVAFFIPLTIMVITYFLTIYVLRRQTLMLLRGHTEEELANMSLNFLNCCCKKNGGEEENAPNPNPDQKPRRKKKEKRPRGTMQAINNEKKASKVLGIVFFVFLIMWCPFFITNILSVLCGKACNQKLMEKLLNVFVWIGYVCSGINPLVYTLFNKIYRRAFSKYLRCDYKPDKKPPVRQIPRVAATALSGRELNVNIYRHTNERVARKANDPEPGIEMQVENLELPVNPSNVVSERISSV
Method: as §1, §2

Substance: 2-(3,4-DIFLUOROPHENYL)4,5-DIHYDROIMIDAZOLE-1-CARBOXYLIC ACID {3-[4-PHENYL-4-(4-BROMO-5-METHYLTHIOPNEN-2-YL)]PROPYL}-AMIDE [Example 19]
- pKi (human MCH1 receptor): 8.52
- pKi (human GALR1; Table 2): < 4.30
- pKi (human GALR1; Table 3): < 4.30
- pKi (human GALR3; Table 2): < 4.30
- pKi (human GALR3; Table 3): < 4.30
- pKi (human GALR2; Table 2): < 4.30
- pKi (human GALR2; Table 3): < 4.30
- pKi (rat 5-HT2C receptor; Table 2): 4.93
- pKi (rat 5-HT2C receptor; Table 3): 4.93
